Results published in US20040204368A1, “Oxadiazole derivative compounds and drugs containing these compounds as the active ingredient” (priority 2001, published 2004).

Target: T1, Cathepsin K (Homo sapiens, UniProt P43235)
T1 sequence (P43235 115-329): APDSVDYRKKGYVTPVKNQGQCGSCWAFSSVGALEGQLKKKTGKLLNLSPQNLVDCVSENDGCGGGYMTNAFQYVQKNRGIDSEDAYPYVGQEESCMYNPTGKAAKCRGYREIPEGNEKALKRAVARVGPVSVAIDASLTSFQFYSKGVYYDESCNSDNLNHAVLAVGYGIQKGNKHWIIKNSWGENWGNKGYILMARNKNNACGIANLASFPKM
Assay: Measurement of cathepsin K inhibitory activity
Type: biochemical
Details: Dixon plot, pH 5.5, 37° C.
Description: (i) Measurement of Cathepsin K Inhibitory Activity
65 μL of Cathepsin K enzyme reaction buffer (50 mmol/L of 2-(N-morpholino)ethanesulfonate, 2 mmol/L of ethylene diamine tetraacetate (EDTA) and 4 mmol/L of dithio threitol (DTT) were mixed to adjust to pH 5.5), 5 μL of cysteine protease inhibitor solution of several concentrations, 20 μL of synthesized substrate (t-butyloxycarbonyl-L-alanyl-glycyl-L-prolyl-L-arginine-4-methyl-chromanyl-7-amide) solution of several concentrations and 10 μL of cathepsin K enzyme solution were mixed and the increase of fluorescence intensity when reacted at 37° C. was measured (Ex (excitation wavelength)=355 nm, Em (fluorescence wavelength)=460 nm). As to the substrate and the compound of the present invention, enzyme reactions were carried out in combination of several appropriate concentrations and Dixon plotting was prepared, to define the absolute value of X-coordinate of the intersection point of the graph as Ki value.

Ki: 48 nM
SMILES: CC(C)CC(NC(=O)C1CCCCCC1)C(=O)c1nnc(SCCN(C)C)o1 (stereo not shown) [example 1]
